Read-outs that look alike come from different tables or passages of the source. Marks after values point to notes of the source that are not given here. One block for each molecule: values may come before it.
How the values were obtained:
[1] = system: Human umbilical vein endothelial cells (HUVEC); experiment: MTT test of overall cell growth, endothelial cells, normoxic or hypoxic conditions; type: cell-based; conditions: for Selectivity: if u.t.d., ratio of activity at 100 μM
Procedure: (§1) MTT tests were performed in order to rapidly, i.e. within 3 days, measure the effect of compounds of this invention on the overall cell growth. The test measured the number of metabolically active living cells that were able to transform the yellow product 3-(4,5-dimethylthiazol-2-yl)-2,5-diphenyl tetrazolium bromide (herein referred as MTT) into the blue product formazan dye by mitochondrial reduction. The amount of formazan obtained at the end of the experiment, measured by means of a spectrophotometer (Plate Reader Victor X4 Microplate reader (Perkin Elmer), is directly proportional to the number of living cells. Optical density determination thus enabled a quantitative measurement of the effect of the investigated compounds under control conditions (normoxia) as compared to the hypoxic conditions (0.1 or 1% O2) and/or untreated conditions.
(§2) Human umbilical vein endothelial cells (HUVEC) and six human cancer cell lines were used in the MTT tests. These cancer cell lines cover five histological cancer types including cervix (SiHa), breast (MCF-7 and MDA-MB231), prostate (PC3), glioma (U373), and colorectal (LoVo) cancers.
(§3) To perform the assay, cells were allowed to grow in 96-well microplates with a flat bottom following addition of an amount of 100 μl of cell suspension per well with 4,500 cells/well. Each cell line was seeded in its appropriate culture medium. HUVEC were cultured in a specific endothelial cell growth medium (ECACC, Sigma); SiHa cells in Glutamax-containing DMEM with 4.5 g/1 glucose (Invitrogen) supplemented with 10% Foetal Bovine Serum (PAA) and 1% penicillin+streptomycin mix (Invitrogen); MCF-7, MDA-MB-231, PC3, and LoVo cells in Glutamax-containing RPMI supplemented with 10% Foetal Bovine Serum (PAA) and 1% penicillin+streptomycin mix (Invitrogen) and U373 cells in Glutamax-containing DMEM (Invitrogen) with 5% Foetal Bovine Serum (PAA) and 1% penicillin+streptomycin mix (Invitrogen).
(§4) The detailed experimental procedure was the following: after a 24-hour period of incubation at 37° C., the culture medium was replaced by 100 μl of fresh medium in which the tested compound was previously dissolved, at the following concentrations: 10^−8 M, 5.10^−8, 10^−7, 5.10^−7, 10^−6, 5.10^−6, 10^−5, 5.10^−5 and 10^−[…]. Each experiment was performed in sestuplicates (6 times).
(§5) Cells were then incubated under normoxia in a Binder incubator (the O2 level corresponding to the concentration in the ambient air), or in a Ruskin hypoxia workstation under either 0.1% O2 (v/v) or 1% O2 (v/v). Under both conditions, the atmosphere was humidified and the CO2 concentration was fixed at 5 vol. %.
(§6) After 72 hours of incubation at 37° C. under normoxic or hypoxic conditions, with or without the compound to be tested, the medium was replaced by 100 μl of HBSS (without phenol red) containing MTT at a concentration of 0.5 or 1 mg/ml. The micro-wells were subsequently incubated during 3 hours and a half at 37° C. and centrifuged at 1300 rpm during 10 minutes. Medium was removed and formazan crystals formed were dissolved in 100 μl DMSO. The micro-wells were shaken for 5 minutes and read on a spectrophotometer at wavelengths of 570 nm (maximal formazan absorbance).
(§7) For each experimental condition, the mean optical density was calculated, allowing the determination of the percentage of living cells in comparison to the control.

MDA-MB-231 = experiment: MTT test of overall cell growth, MDA-MB-231 breast cancer cells, normoxia or hypoxia; type: cell-based, human; conditions: for Selectivity: MDA-MB-231, IC50 (normoxia)/IC50 (hypoxia 1% O2), if u.t.d., ratio of activity at 100 μM
Procedure: as §1, §2, §3, §4, §5, §6, §7

MCF-7 = experiment: MTT test of overall cell growth, MCF-7 breast cancer cells, normoxia or hypoxia; type: cell-based, human; conditions: for Selectivity: MCF-7, IC50 (normoxia)/IC50 (hypoxia 1% O2), if u.t.d., ratio of activity at 100 μM
Procedure: as §1, §2, §3, §4, §5, §6, §7

PC3 = experiment: MTT test of overall cell growth, PC3 prostate cancer cells, normoxia or hypoxia; type: cell-based, human
Procedure: as §1, §2, §3, §4, §5, §6, §7

LoVo = experiment: MTT test of overall cell growth, LoVo colorectal cancer cells, normoxia or hypoxia; type: cell-based, human; conditions: for Selectivity: IC50 (normoxia)/IC50 (hypoxia 1% O2), if u.t.d., ratio of activity at 100 μM
Procedure: as §1, §2, §3, §4, §5, §6, §7

siHa = experiment: MTT test of overall cell growth, SiHa cervix cancer cells, normoxia or hypoxia; type: cell-based, human; conditions: for Selectivity: IC50 (normoxia)/IC50 (hypoxia 1% O2), if u.t.d., ratio of activity at 100 μM
Procedure: as §1, §2, §3, §4, §5, §6, §7

U373 = experiment: MTT test of overall cell growth, U373 glioma cells, normoxia or hypoxia; type: cell-based, human; conditions: for Selectivity: U373, IC50 (normoxia)/IC50 (hypoxia 1% O2), if u.t.d., ratio of activity at 100 μM
Procedure: as §1, §2, §3, §4, §5, §6, §7

[2] = IC50 (normoxia)/IC50 (hypoxia 0.1%)
[3] = IC50 (normoxia)/IC50 (hypoxia 1%)
[4] = Homo sapiens, hypoxia 1% O2, 72 h, read-out: IC50 (μM) Hypoxia 1% O2
[5] = hypoxia 1% O2, 72 h, read-out: IC50 (μM) Hypoxia 1% O2
[6] = normoxia, 72 h, read-out: IC50 (μM) Normoxia

IC50 (MDA-MB-231; Homo sapiens, MDA-MB-231, hypoxia 1% O2, 72 h, read-out: IC50 (μM) Hypoxia 1% O2): 126 µM | IC50 (μM) Normoxia (MDA-MB-231; MDA-MB-231, normoxia, 72 h): u.t.d. | IC50 (MCF-7; Homo sapiens, MCF7, MCF-7, hypoxia 1% O2, 72 h, read-out: IC50 (μM) Hypoxia 1% O2): 91.2 µM | IC50 (μM) Normoxia (MCF-7; MCF-7, normoxia, 72 h): u.t.d. | IC50 (μM) Hypoxia 1% O2 (PC3; PC3, hypoxia 1% O2, 72 h): u.t.d. | IC50 (μM) Normoxia (PC3; PC3, normoxia, 72 h): u.t.d. | IC50 (LoVo; [4]): 154 µM | IC50 (LoVo; Homo sapiens, normoxia, 72 h, read-out: IC50 (μM) Normoxia): 116 µM | IC50 (siHa; [4]): 92.1 µM | IC50 (μM) Normoxia (siHa; normoxia, 72 h): u.t.d. | IC50 (U373; Homo sapiens, U373 MG, U373, hypoxia 1% O2, 72 h, read-out: IC50 (μM) Hypoxia 1% O2): 113 µM | IC50 (μM) Normoxia (U373; U373, normoxia, 72 h): u.t.d.
Structure (SMILES): COc1ccc(CNC(=O)c2ccc3nc4c(nc3c2)c2c(c3ccccc34)OC(C)(C)[C@H]3CC[C@H](C)C[C@H]23)c(OC)c1 [Compound 16′]
IC50 ([1]; Homo sapiens, 72 h, hypoxia 0.1% O2, 72 h, read-out: IC50 (μM) Hypoxia 0.1%): 0.21 µM | IC50 ([1]; Homo sapiens, 72 h, hypoxia 1% O2, 72 h, read-out: IC50 (μM) Hypoxia 1%): 7.96 µM | IC50 ([1]; Homo sapiens, 72 h, normoxia, 72 h, series compared with hypoxia 0.1%, read-out: IC50 (μM) Normoxia): 16.7 µM | IC50 ([1]; Homo sapiens, 72 h, normoxia, 72 h, series compared with hypoxia 1%, read-out: IC50 (μM) Normoxia): 120 µM | Selectivity [1, 2]: 80 | Selectivity [1, 3]: 15 | Selectivity (MDA-MB-231): >1.38^b | Selectivity (MCF-7): >1.91^b | Selectivity (LoVo): 0.76 | Selectivity (siHa): >1.89^b | Selectivity (U373): >1.54^b

Structure (SMILES): C[C@H]1CC[C@H]2[C@H](C1)c1c(c3ccccc3c3nc4cc(C(=O)N[C@@H](CO)Cc5ccccc5)ccc4nc13)OC2(C)C [Compound 17]
Selectivity [1, 2]: 134 | Selectivity [1, 3]: 8 | IC50 ([1]; hypoxia 0.1% O2, 72 h, read-out: IC50 (μM) Hypoxia 0.1%): 0.05 µM | IC50 ([1]; hypoxia 1% O2, 72 h, read-out: IC50 (μM) Hypoxia 1%): 0.63 µM | IC50 ([1]; normoxia, 72 h, series compared with hypoxia 0.1%, read-out: IC50 (μM) Normoxia): 6.25 µM | IC50 ([1]; normoxia, 72 h, series compared with hypoxia 1%, read-out: IC50 (μM) Normoxia): 5.18 µM | IC50 (MDA-MB-231; MDA-MB-231, hypoxia 1% O2, 72 h, read-out: IC50 (μM) Hypoxia 1% O2): 11.4 µM | IC50 (MDA-MB-231; MDA-MB-231, normoxia, 72 h, read-out: IC50 (μM) Normoxia): 13.4 µM | Selectivity (MDA-MB-231): 1.17 | IC50 (MCF-7; MCF-7, hypoxia 1% O2, 72 h, read-out: IC50 (μM) Hypoxia 1% O2): 11.1 µM | IC50 (MCF-7; MCF-7, normoxia, 72 h, read-out: IC50 (μM) Normoxia): 12.2 µM | Selectivity (MCF-7): 1.10 | IC50 (PC3; PC3, hypoxia 1% O2, 72 h, read-out: IC50 (μM) Hypoxia 1% O2): 11.1 µM | IC50 (PC3; PC3, normoxia, 72 h, read-out: IC50 (μM) Normoxia): 10.4 µM | Selectivity (PC3; PC3, IC50 (normoxia)/IC50 (hypoxia 1% O2), if u.t.d., ratio of activity at 100 μM): 0.94 | Selectivity (LoVo): 1.04 | IC50 (LoVo; [5]): 9.47 µM | IC50 (LoVo; [6]): 9.83 µM | Selectivity (siHa): 7.12 | IC50 (siHa; [5]): 10.5 µM | IC50 (siHa; [6]): 75 µM | IC50 (U373; U373, hypoxia 1% O2, 72 h, read-out: IC50 (μM) Hypoxia 1% O2): 1.23 µM | IC50 (U373; U373, normoxia, 72 h, read-out: IC50 (μM) Normoxia): 6.97 µM | Selectivity (U373): 5.65

Source: US9181265B2, “Substituted 2,3-dihydro-1H-benzo[a]pyrano[2,3-c]phenazines as anti-angiogenic and anti-cancer agents” (UNIVERSITE CATHOLIQUE DE LOUVAIN, priority 2010, dated 2015)
